Assay results published in ChEMBL document CHEMBL4725268, “Anticonvulsant and analgesic in neuropathic pain activity in a group of new aminoalkanol derivatives” (Bioorg Med Chem Lett, 2020).
The source made the active and inactive calls.

Experiments:
[1] = Protection index, ratio of TD50 for toxicity in ip dosed mouse to ED50 for anticonvulsant activity in ip dosed mouse; format: organism-based; conditions: in vivo, read-out: PI
[2] = Antioxidant activity assessed as DPPH radical scavenging activity at 125 to 1000 uM by microplate method; format: functional; conditions: dose microM 125-1000
Mus musculus [3] = assay: Anticonvulsant activity in ip dosed mouse assessed as protection against current-induced seizure by maximal electroshock seizure test; format: functional
[4] = Toxicity in mouse assessed as lethality at 50 mg/kg, ip; format: organism-based; conditions: in vivo
[5] = Toxicity in ip dosed mouse assessed as motor impairment by rotarod test; format: organism-based; conditions: in vivo
Mus musculus [6] = assay: Antiallodynic activity in mouse model of OXA-induced peripheral neuropathy assessed as mean latency time to nocifensive response at 15 mg/kg, ip administered after 3 hrs of OXA stimulation and measured after 1 hr by cold plate method (reference value: 59.76 +/- 0.16 sec); format: functional
Mus musculus [7] = assay: Antiallodynic activity in mouse model of OXA-induced peripheral neuropathy assessed as mean paw withdrawal threshold at 15 mg/kg, ip administered after 3 hrs of OXA stimulation and measured after 1 hr by Von-frey method (reference value: 3.144 +/- 0.169 g); format: functional
Mus musculus [8] = assay: Antiallodynic activity in mouse model of OXA-induced peripheral neuropathy assessed as mean latency time to nocifensive response at 15 mg/kg, ip administered after 7 days of OXA stimulation and measured after 1 hr by cold plate method (reference value: 57.64 +/- 1.267 sec); format: functional
Mus musculus [9] = assay: Antiallodynic activity in mouse model of OXA-induced peripheral neuropathy assessed as mean paw withdrawal threshold at 15 mg/kg, ip administered after 7 days of OXA stimulation and measured after 1 hr by Von-frey method (reference value: 3.192 +/- 0.181 g); format: functional
[10] = molecular target: T1, 5-hydroxytryptamine receptor 1A (Homo sapiens, UniProt P08908); assay: Binding affinity to 5-HT1A (unknown origin)
T1 sequence (P08908 whole entry): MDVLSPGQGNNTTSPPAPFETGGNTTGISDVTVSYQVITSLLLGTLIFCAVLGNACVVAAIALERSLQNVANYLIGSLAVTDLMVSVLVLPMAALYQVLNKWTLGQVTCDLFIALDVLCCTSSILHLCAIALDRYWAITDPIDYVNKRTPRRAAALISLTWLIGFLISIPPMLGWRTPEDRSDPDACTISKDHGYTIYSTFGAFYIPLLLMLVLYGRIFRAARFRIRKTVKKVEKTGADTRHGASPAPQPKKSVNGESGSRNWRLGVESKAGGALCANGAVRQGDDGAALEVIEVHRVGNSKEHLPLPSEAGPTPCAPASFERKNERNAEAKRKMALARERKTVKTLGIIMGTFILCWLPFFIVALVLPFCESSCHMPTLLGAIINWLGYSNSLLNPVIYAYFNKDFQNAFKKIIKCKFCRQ

[11] = Drug metabolism in mouse microsome assessed as formation of monohydroxylated metabolite; format: ADME; conditions: microsomes
in vitro [12] = conditions: mouse, microsomes
Description: Metabolic stability in mouse microsome assessed as half life

in vitro [13] = conditions: mouse, microsomes; remark: listed apart in the source
Description: Metabolic stability in mouse microsome assessed as intrinsic clearance

[14] = Toxicity in mouse assessed as lethality at 10 mg/kg, ip; format: organism-based; conditions: in vivo
[15] = Toxicity in mouse assessed as lethality at 30 mg/kg, ip; format: organism-based; conditions: in vivo
Mus musculus [16] = assay: Antiallodynic activity in mouse model of OXA-induced peripheral neuropathy assessed as mean latency time to nocifensive response at 18 mg/kg, ip administered after 3 hrs of OXA stimulation and measured after 1 hr by cold plate method (reference value: 59.76 +/- 0.16 sec); format: functional
Mus musculus [17] = assay: Antiallodynic activity in mouse model of OXA-induced peripheral neuropathy assessed as mean paw withdrawal threshold at 18 mg/kg, ip administered after 3 hrs of OXA stimulation and measured after 1 hr by Von-frey method (reference value: 3.144 +/- 0.169 g); format: functional
Mus musculus [18] = assay: Antiallodynic activity in mouse model of OXA-induced peripheral neuropathy assessed as mean latency time to nocifensive response at 18 mg/kg, ip administered after 7 days of OXA stimulation and measured after 1 hr by cold plate method (reference value: 57.64 +/- 1.267 sec); format: functional
Mus musculus [19] = assay: Antiallodynic activity in mouse model of OXA-induced peripheral neuropathy assessed as mean paw withdrawal threshold at 18 mg/kg, ip administered after 7 days of OXA stimulation and measured after 1 hr by Von-frey method (reference value: 3.192 +/- 0.181 g); format: functional
Enterococcus faecalis = assay: Antimicrobial activity against Enterococcus faecalis ATCC 29212 assessed as reduction in bacterial growth at 0.195 to 100 ug/ml by serial dilution method; format: organism-based; conditions: in vivo, dose 0.195-100 µg/ml
Escherichia coli [20] = assay: Antimicrobial activity against Escherichia coli ATCC 25922 assessed as reduction in bacterial growth at 0.195 to 100 ug/ml by serial dilution method; format: organism-based; conditions: in vivo, dose 0.195-100 µg/ml
Escherichia coli [21] = assay: Antimicrobial activity against Escherichia coli ATCC 35218 assessed as reduction in bacterial growth at 0.195 to 100 ug/ml by serial dilution method; format: organism-based; conditions: in vivo, dose 0.195-100 µg/ml
Staphylococcus aureus [22] = assay: Antimicrobial activity against Staphylococcus aureus ATCC 25923 assessed as reduction in bacterial growth at 0.195 to 100 ug/ml by serial dilution method; format: organism-based; conditions: in vivo, dose 0.195-100 µg/ml
Staphylococcus aureus [23] = assay: Antimicrobial activity against clinical strain Staphylococcus aureus assessed as reduction in bacterial growth at 0.195 to 100 ug/ml by serial dilution method; format: organism-based; conditions: in vivo, dose 0.195-100 µg/ml
Salmonella enterica = assay: Antimicrobial activity against Salmonella enterica ATCC 51957 assessed as reduction in bacterial growth at 0.195 to 100 ug/ml by serial dilution method; format: organism-based; conditions: in vivo, dose 0.195-100 µg/ml
Bacteroides fragilis = assay: Antimicrobial activity against Bacteroides fragilis ATCC 25285 assessed as reduction in bacterial growth at 0.195 to 100 ug/ml by disk diffusion method; format: organism-based; conditions: in vivo, dose 0.195-100 µg/ml
Hoylesella loescheii = assay: Antimicrobial activity against Prevotella loescheii ATCC 15930 assessed as reduction in bacterial growth at 0.195 to 100 ug/ml by disk diffusion method; format: organism-based, DSM 19665 = JCM 12249 = ATCC 15930; conditions: in vivo, dose 0.195-100 µg/ml
[24] = Antimicrobial activity against clinical strain Bifidobacterium assessed as reduction in bacterial growth at 0.195 to 100 ug/ml by disk diffusion method; conditions: dose 0.195-100 µg/ml
Clostridioides difficile = assay: Antimicrobial activity against clinical strain Clostridium difficile assessed as reduction in bacterial growth at 0.195 to 100 ug/ml by disk diffusion method; format: organism-based; conditions: in vivo, dose 0.195-100 µg/ml
[25] = molecular target: T2, 5-hydroxytryptamine receptor 1A (Homo sapiens) (UniProt P08908); assay: Binding affinity to 5-HT1A (unknown origin) at 10^-5 M; conditions: dose 1.0 10^-5M
T2 sequence (whole entry): T1 sequence (P08908 whole entry)

[26] = Genotoxicity in Salmonella typhimurium TA100 assessed as number of revertant at 10 ug by AMES test (reference value: 64.3 to 130.7); format: toxicity, Salmonella enterica subsp. enterica serovar Typhimurium; conditions: in vivo; dose 10 µg
[27] = Genotoxicity in Salmonella typhimurium TA100 assessed as number of revertant at 75 ug by AMES test (reference value: 64.3 to 130.7); format: toxicity, Salmonella enterica subsp. enterica serovar Typhimurium; conditions: in vivo; dose 75 µg
[28] = Genotoxicity in Salmonella typhimurium TA100 assessed as number of revertant at 200 ug by AMES test (reference value: 64.3 to 130.7); format: toxicity, Salmonella enterica subsp. enterica serovar Typhimurium; conditions: in vivo; dose 200 µg
[29] = Genotoxicity in Salmonella typhimurium TA100 assessed as number of revertant at 500 ug by AMES test (reference value: 64.3 to 130.7); format: toxicity, Salmonella enterica subsp. enterica serovar Typhimurium; conditions: in vivo; dose 500 µg
[30] = Genotoxicity in Salmonella typhimurium TA100 assessed as mutagenic index at 10 ug by AMES test; format: toxicity, Salmonella enterica subsp. enterica serovar Typhimurium; conditions: in vivo; dose 10 µg
[31] = Genotoxicity in Salmonella typhimurium TA100 assessed as mutagenic index at 75 ug by AMES test; format: toxicity, Salmonella enterica subsp. enterica serovar Typhimurium; conditions: in vivo; dose 75 µg
[32] = Genotoxicity in Salmonella typhimurium TA100 assessed as mutagenic index at 200 ug by AMES test; format: toxicity, Salmonella enterica subsp. enterica serovar Typhimurium; conditions: in vivo; dose 200 µg
[33] = Genotoxicity in Salmonella typhimurium TA100 assessed as mutagenic index at 500 ug by AMES test; format: toxicity, Salmonella enterica subsp. enterica serovar Typhimurium; conditions: in vivo; dose 500 µg
[34] = Genotoxicity in Salmonella typhimurium TA98 assessed as number of revertant at 10 ug by AMES test (reference value: 8 to 8.3); format: toxicity, Salmonella enterica subsp. enterica serovar Typhimurium; conditions: in vivo; dose 10 µg
[35] = Genotoxicity in Salmonella typhimurium TA98 assessed as number of revertant at 75 ug by AMES test (reference value: 8 to 8.3); format: toxicity, Salmonella enterica subsp. enterica serovar Typhimurium; conditions: in vivo; dose 75 µg
[36] = Genotoxicity in Salmonella typhimurium TA98 assessed as number of revertant at 200 ug by AMES test (reference value: 8 to 8.3); format: toxicity, Salmonella enterica subsp. enterica serovar Typhimurium; conditions: in vivo; dose 200 µg
[37] = Genotoxicity in Salmonella typhimurium TA98 assessed as number of revertant at 500 ug by AMES test (reference value: 8 to 8.3); format: toxicity, Salmonella enterica subsp. enterica serovar Typhimurium; conditions: in vivo; dose 500 µg
[38] = Genotoxicity in Salmonella typhimurium TA98 assessed as number of revertant at 750 ug by AMES test (reference value: 8 to 8.3); format: toxicity, Salmonella enterica subsp. enterica serovar Typhimurium; conditions: in vivo; dose 750 µg
[39] = Genotoxicity in Salmonella typhimurium TA98 assessed as mutagenic index at 10 ug by AMES test; format: toxicity, Salmonella enterica subsp. enterica serovar Typhimurium; conditions: in vivo; dose 10 µg
[40] = Genotoxicity in Salmonella typhimurium TA98 assessed as mutagenic index at 75 ug by AMES test; format: toxicity, Salmonella enterica subsp. enterica serovar Typhimurium; conditions: in vivo; dose 75 µg
[41] = Genotoxicity in Salmonella typhimurium TA98 assessed as mutagenic index at 200 ug by AMES test; format: toxicity, Salmonella enterica subsp. enterica serovar Typhimurium; conditions: in vivo; dose 200 µg
[42] = Genotoxicity in Salmonella typhimurium TA98 assessed as mutagenic index at 500 ug by AMES test; format: toxicity, Salmonella enterica subsp. enterica serovar Typhimurium; conditions: in vivo; dose 500 µg
[43] = Genotoxicity in Salmonella typhimurium TA98 assessed as mutagenic index at 750 ug by AMES test; format: toxicity, Salmonella enterica subsp. enterica serovar Typhimurium; conditions: in vivo; dose 750 µg
Mus musculus [44] = assay: Anticonvulsant activity in ip dosed albino mouse assessed as protection against 50 mA current-induced seizure by maximal electroshock seizure test; format: functional

O=C1NC(=O)C(c2ccccc2)(c2ccccc2)N1 [PHENYTOIN]
selectivity ratio [1]: 8.56

Cc1cc(C)c(OCCCN[C@@H]2CCCC[C@H]2O)c(C)c1 (relative stereo)
Activity [2]: inactive
ED50 (Mus musculus [3]): 14.8 mg/kg
Activity [4]: Non-Toxic
TD50 [5]: 42.9 mg/kg
selectivity ratio [1]: 2.9
Time (Mus musculus [6]): 19.35 s
Activity (Mus musculus [7]): 1.999 g
Time (Mus musculus [8]): 7.09 s
Activity (Mus musculus [9]): 1.958 g
Ki [10]: 2370 nM
Drug metabolism [11]: Metabolite_Detected
half-life (in vitro [12]): 27.2 min
microsomal CLint (in vitro [13]): 128 µL/min/mg

Cc1cc(C)c(OCCCN2CCCC(O)C2)c(C)c1.Cl (racemic)
Activity [2]: inactive
ED50 (Mus musculus [3]): 18.2 mg/kg
Activity [14]: Non-Toxic
Activity [15]: Non-Toxic
TD50 [5]: 70.2 mg/kg
selectivity ratio [1]: 3.86
Time (Mus musculus [16]): 18.18 s
Activity (Mus musculus [17]): 1.958 g
Time (Mus musculus [18]): 10.65 s
Activity (Mus musculus [19]): 1.947 g
Ki [10]: 3390 nM
Drug metabolism [11]: Metabolite_Detected
Activity (Enterococcus faecalis): Non-Toxic
Activity (Escherichia coli [20]): Non-Toxic
Activity (Escherichia coli [21]): Non-Toxic
Activity (Staphylococcus aureus [22]): Non-Toxic
Activity (Staphylococcus aureus [23]): Non-Toxic
Activity (Salmonella enterica): Non-Toxic
Activity (Bacteroides fragilis): Non-Toxic
Activity (Hoylesella loescheii): Non-Toxic
Activity [24]: Non-Toxic
Activity (Clostridioides difficile): Non-Toxic
half-life (in vitro [12]): 38.9 min
microsomal CLint (in vitro [13]): 44.5 µL/min/mg

Cc1cccc(C)c1OCCOCCNC1CCC(O)CC1.Cl (centres undefined)
ED50 (Mus musculus [3]): 33 mg/kg
TD50 [5]: 132 mg/kg
selectivity ratio [1]: 3.99
Activity [25]: inactive
Drug metabolism [11]: Metabolite_Detected
Activity [26]: 226.7
Activity [27]: 312.3
Activity [28]: 55
Activity [29]: 274.3
Activity_index [30]: 3.1
Activity_index [31]: 4.3
Activity_index [32]: 0.8
Activity_index [33]: 3.8
Activity [34]: 8
Activity [35]: 8.3
Activity [36]: 9.3
Activity [37]: 6.7
Activity [38]: 3
Activity_index [39]: 1
Activity_index [40]: 1
Activity_index [41]: 1.2
Activity_index [42]: 0.8
Activity_index [43]: 0.4
half-life (in vitro [12]): 87.7 min
microsomal CLint (in vitro [13]): 19.8 µL/min/mg

CC(C)NCC(O)COc1cccc2ccccc12 (racemic) [PROPRANOLOL]
ED50 (Mus musculus [44]): 1.2 mg/kg
